{
  "source": "paper PMC9424906",
  "about": "(Frontiers in Pharmacology, 2022)",
  "key": {"[1]": {"test_system": "SARS-CoV-2 (USA_WA1/2020)", "experiment": "SARS-CoV-2 cytopathic effect (CPE) assay in Vero E6 cells", "assay_type": "cell-based", "conditions": "Severe acute respiratory syndrome coronavirus 2, Vero C1008; Vero E6 cells, MOI 0.002, 72 h, n = 2; read-out: EC50, inhibition of SARS-CoV-2 CPE"}, "[2]": {"assay_type": "in vitro ADME, human, rat, mouse, dog, monkey", "experimental": "Samples were analyzed using UPLC-MS/MS."}, "[3]": {"molecular_target": "T1, CNT1 (Homo sapiens, UniProt O00337)", "T1 construct": "expressed in transfected cells; host or cells: MDCK-II", "T1 sequence (O00337 1-649)": "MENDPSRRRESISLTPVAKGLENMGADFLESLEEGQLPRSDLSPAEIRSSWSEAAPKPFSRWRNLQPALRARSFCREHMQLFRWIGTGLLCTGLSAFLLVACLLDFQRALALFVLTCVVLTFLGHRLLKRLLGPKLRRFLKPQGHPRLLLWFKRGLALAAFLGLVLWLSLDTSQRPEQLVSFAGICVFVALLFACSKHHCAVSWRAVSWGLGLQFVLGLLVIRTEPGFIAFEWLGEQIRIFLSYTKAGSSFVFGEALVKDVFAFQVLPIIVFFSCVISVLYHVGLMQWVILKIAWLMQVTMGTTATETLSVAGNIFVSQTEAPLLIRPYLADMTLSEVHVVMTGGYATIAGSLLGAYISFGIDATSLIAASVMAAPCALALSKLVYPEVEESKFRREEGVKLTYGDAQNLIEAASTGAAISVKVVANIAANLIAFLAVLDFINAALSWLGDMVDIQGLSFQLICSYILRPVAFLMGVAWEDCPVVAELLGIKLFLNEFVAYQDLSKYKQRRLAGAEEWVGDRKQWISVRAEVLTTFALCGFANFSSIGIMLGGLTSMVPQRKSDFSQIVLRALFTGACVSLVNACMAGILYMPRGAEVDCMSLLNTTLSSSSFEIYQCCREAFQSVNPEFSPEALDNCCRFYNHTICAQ", "experiment": "Nucleoside transporter uptake, CNT1-transfected MDCK cells", "assay_type": "in vitro ADME", "description": "(§1) Each condition was run in triplicate."}, "[4]": {"molecular_target": "T2, CNT2 (Homo sapiens, UniProt O43868)", "T2 construct": "expressed in transfected cells; host or cells: MDCK-II", "T2 sequence (O43868 1-658)": "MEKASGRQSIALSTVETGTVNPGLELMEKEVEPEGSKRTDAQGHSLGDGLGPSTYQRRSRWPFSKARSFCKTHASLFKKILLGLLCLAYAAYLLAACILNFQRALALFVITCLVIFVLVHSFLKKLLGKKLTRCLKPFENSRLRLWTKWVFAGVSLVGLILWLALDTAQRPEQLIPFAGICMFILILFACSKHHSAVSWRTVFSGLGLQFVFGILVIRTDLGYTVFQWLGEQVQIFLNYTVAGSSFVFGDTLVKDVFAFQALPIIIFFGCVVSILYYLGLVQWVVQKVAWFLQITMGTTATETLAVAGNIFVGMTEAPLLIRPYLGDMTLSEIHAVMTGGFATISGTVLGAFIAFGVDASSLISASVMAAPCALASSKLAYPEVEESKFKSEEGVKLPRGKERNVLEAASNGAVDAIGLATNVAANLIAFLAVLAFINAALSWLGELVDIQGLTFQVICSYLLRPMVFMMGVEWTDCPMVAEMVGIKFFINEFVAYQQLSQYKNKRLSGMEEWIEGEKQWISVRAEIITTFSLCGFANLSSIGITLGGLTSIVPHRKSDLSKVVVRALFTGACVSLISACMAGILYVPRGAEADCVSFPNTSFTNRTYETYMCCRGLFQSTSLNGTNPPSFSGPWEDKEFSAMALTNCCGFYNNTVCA", "experiment": "Nucleoside transporter uptake, CNT2-transfected MDCK cells", "assay_type": "in vitro ADME", "conditions": "for Uptake compared to control cells: CNT2-transfected cells", "description": "as §1"}, "[5]": {"experiment": "Pharmacokinetics in Sprague Dawley rats", "assay_type": "in vivo", "conditions": "male, rat; for Vd / clearance / AUC(0-inf) / Cmax / Tmax / bioavailability: in vivo; for Vd / clearance: iv; for AUC(0-inf) / Cmax / Tmax / bioavailability / half-life: po; for half-life: plasma, Rat", "experimental": "Adult male C57BL/6 mice and Sprague Dawley rats were purchased from Charles River Laboratory (Wilmington, MA). PK studies for mice and rats were conducted at NIH animal facility (Bethesda, MD). In-life dog and monkey PK studies were conducted at Absorption System (San Diego, CA) and Frontage Labs (Concord, OH), respectively. Dogs and monkeys were fasted overnight prior to dose administrations. All experimental procedures were reviewed and approved by the Animal Care and Use Committee (ACUC) of the NIH Division of Veterinary Resources (DVR) or CRO labs for in-life studies.\nMale Sprague–Dawley rats (n = 3 or 4 per treatment group, ∼ 343–375 g) were dosed in IV and PO dosing groups: 1 and 5 mg/kg IV, and 10, 30 and 100 mg/kg PO, respectively. Double cannulated rats (one catheter for IV dosing and another one for sampling) were used. Plasma samples were collected from jugular vein over 24 h. In bile duct cannulated (BDC) rat group, a single IV dose of 2 mg/kg was administered to three rats. Rat urine and bile samples were collected for the pre-dose, 0–4 h, 4–8 h, and 8–24 h time periods for BDC rats.\nBlood samples from all groups and species were collected in K2EDTA tubes and stored on wet ice pending processing. Blood was centrifuged at 2200 g at 4°C for 10 min to isolate plasma. All samples were stored at -80°C until analysis.\nPhoenix WinNonlin, version 8.1 (Certara, St. Louis, MO), was used to perform PK analysis with the non-compartmental approach (Models 200 and 201 for PO and IV datasets). The area under the plasma concentration vs. time curve (AUC) was calculated using the linear trapezoidal method. The terminal rate constant (λ) was obtained from the slope of at least three data points of the apparent terminal phase of the log-linear plasma concentration vs. time curve when available. AUC0–∞ was estimated as the sum of the AUC0–t (where t is the time of the last measurable concentration) and Ct/λ. The apparent terminal half-life (t½) was calculated as 0.693/λ. Bioavailability (F) was calculated using ratios of dose normalized AUC (AUC/Dose) obtained from PO and IV PK studies."}, "[6]": {"test_system": "MDR1", "conditions": "MDCK-MDR1"}, "[7]": {"test_system": "OAT1", "conditions": "cited from earlier work"}, "[8]": {"experiment": "7-days dose range finding study in rats", "conditions": "oral, 7 days, 1,500 mg/kg/day"}},
  "note": "“Also recorded” adds a separate entry of the source. Read-outs that look alike come from different tables or passages of the source.",
  "data": [
    {"smiles": "N#C[C@@]1(c2ccc3c(N)ncnn23)O[C@H](CO)[C@@H](O)[C@H]1O", "note": "[GS-441524]", "values": [
      {"measurement": "EC50", "setting": "[1]", "value": 1860, "unit": "nM"},
      {"measurement": "Stability in cytosolic fractions", "setting": "[2]", "value": "stable"},
      {"measurement": "Stability in liver microsomes", "setting": "[2]", "value": "stable"},
      {"measurement": "Substrate of CNT1", "setting": "[3]", "value": "not a substrate; also recorded: unlikely to be a substrate"},
      {"measurement": "Transporter uptake rate", "setting": "[3]; CNT1, 10 μM, LOQ = 0.222 pmol/min/cm^2", "value": "BLQ"},
      {"measurement": "Difference in uptake compared to control cells", "setting": "[3]; CNT1-transfected cells", "value": "less than 2 fold"},
      {"measurement": "Substrate of CNT2", "setting": "[4]", "value": "not a substrate; also recorded: unlikely to be a substrate"},
      {"measurement": "Uptake compared to control cells", "setting": "[4]; 10 µM", "value": "higher than 2 fold"},
      {"measurement": "Uptake compared to control cells", "setting": "[4]; 30 and 100 µM", "value": "less than 2 fold"},
      {"measurement": "Vd", "setting": "[5]; 1 mg/kg", "value": 2.6, "unit": "L/kg"},
      {"measurement": "clearance", "setting": "[5]; 1 mg/kg", "value": 31, "unit": "mL/min/kg"},
      {"measurement": "Vd", "setting": "[5]; 5 mg/kg", "value": "2.2 ± 0.3", "unit": "L/kg"},
      {"measurement": "clearance", "setting": "[5]; 5 mg/kg", "value": "25 ± 1.6", "unit": "mL/min/kg"},
      {"measurement": "AUC(0-inf)", "setting": "[5]; 10 mg/kg", "value": 2170, "unit": "ng·h/mL"},
      {"measurement": "Cmax", "setting": "[5]; 10 mg/kg", "value": "193 ± 57", "unit": "ng/mL"},
      {"measurement": "Tmax", "setting": "[5]; 10 mg/kg", "value": "3.8 ± 2.4", "unit": "h"},
      {"measurement": "bioavailability", "setting": "[5]; 10 mg/kg", "value": "33 ± 9.8", "unit": "%"},
      {"measurement": "AUC(0-inf)", "setting": "[5]; 30 mg/kg", "value": 4220, "unit": "ng·h/mL"},
      {"measurement": "Cmax", "setting": "[5]; 30 mg/kg", "value": "326 ± 77", "unit": "ng/mL"},
      {"measurement": "Tmax", "setting": "[5]; 30 mg/kg", "value": "3.8 ± 2.4", "unit": "h"},
      {"measurement": "bioavailability", "setting": "[5]; 30 mg/kg", "value": "21 ± 3.8", "unit": "%"},
      {"measurement": "AUC(0-inf)", "setting": "[5]; 100 mg/kg", "value": 9560, "unit": "ng·h/mL"},
      {"measurement": "Cmax", "setting": "[5]; 100 mg/kg", "value": "825 ± 91", "unit": "ng/mL"},
      {"measurement": "Tmax", "setting": "[5]; 100 mg/kg", "value": "2.3 ± 1.3", "unit": "h"},
      {"measurement": "bioavailability", "setting": "[5]; 100 mg/kg", "value": "15 ± 3.2", "unit": "%"},
      {"measurement": "half-life", "setting": "[5]; 10 mg/kg, PO 10 mg/kg, read-out: t1/2 (converted)", "value": "204 ± 12", "unit": "min"},
      {"measurement": "half-life", "setting": "[5]; 30 mg/kg, PO 30 mg/kg, read-out: t1/2 (converted)", "value": "204 ± 12", "unit": "min"},
      {"measurement": "half-life", "setting": "[5]; 100 mg/kg, PO 100 mg/kg, read-out: t1/2 (converted)", "value": "252 ± 108", "unit": "min"},
      {"measurement": "half-life", "setting": "[5]; 100 mg/kg, PO 10, 30 and 100 mg/kg, read-out: Half-life (t1/2)", "value": "204 to 252", "unit": "min"},
      {"measurement": "Substrate of MDR1", "setting": "[6]", "value": "substrate"},
      {"measurement": "Substrate of OAT1", "setting": "[7]", "value": "not a substrate"},
      {"measurement": "Tolerability at maximum feasible dose", "setting": "[8]", "value": "well tolerated"}
    ]}
  ]
}
